Experimental data taken from ChEMBL document CHEMBL1201862, “PubChem BioAssay data set” (2004).
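Values below derive from 48-hour exposures of cells grown in 96-well plates, with endpoints linearly interpolated between the two concentrations bracketing the appropriate inhibition level. Here, GI50 denotes the concentration required for 50% inhibition of growth.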 Calls of active or inactive are those of the source. Rule as the data show it: active = GI50 up to about 1.1 µM and inactive = higher.

How the values were obtained:
Test in all cases: inhibition of tumour cell growth, NCI panel, 48 h
[1] = test system: IGROV-1
[2] = test system: NCI-H522
[3] = test system: SNB-19
[4] = test system: HCT-15
[5] = test system: UACC-62
[6] = test system: OVCAR-3
[7] = test system: SNB-75
[8] = test system: SF-268
[9] = test system: CAKI-1
[10] = test system: HOP-62
[11] = test system: NCI-H226
[12] = test system: MDA-MB-231
[13] = test system: HT-29
[14] = test system: UO-31
[15] = test system: OVCAR-8
[16] = test system: SN12C
[17] = test system: 786-0
[18] = test system: SW-620
[19] = test system: SF-539
[20] = test system: COLO 205

SMILES	GI50 [1]	GI50 [2]	GI50 [3]	GI50 [4]	GI50 [5]	GI50 [6]	GI50 [7]	GI50 [8]	GI50 [9]	GI50 [10]	GI50 [11]	GI50 [12]	GI50 [13]	GI50 [14]	GI50 [15]	GI50 [16]	GI50 [17]	GI50 [18]	GI50 [19]	GI50 [20]
c1ccc2sc(SCSc3nc4ccccc4s3)nc2c1	> 100 µM (inactive)	57.8 µM (inactive)	> 100 µM (inactive)	20.6 µM	71 µM (inactive)	92.7 µM (inactive)	> 100 µM (inactive)	> 100 µM (inactive)	> 100 µM (inactive)	> 100 µM (inactive)	> 100 µM (inactive)	> 100 µM (inactive)	72.1 µM (inactive)	86.1 µM (inactive)	> 100 µM (inactive)	> 100 µM (inactive)	82.4 µM (inactive)	96.8 µM (inactive)	–	–
CCOC(=O)c1ccc(-c2cc(C)no2)[nH]1	> 100 µM (inactive)	76.2 µM (inactive)	> 100 µM (inactive)	30.2 µM	59.8 µM (inactive)	81.8 µM (inactive)	60.1 µM (inactive)	> 100 µM (inactive)	28.8 µM (inactive)	–	> 100 µM (inactive)	76 µM (inactive)	> 100 µM (inactive)	> 100 µM (inactive)	> 100 µM (inactive)	33 µM (inactive)	> 100 µM (inactive)	45.3 µM (inactive)	> 100 µM (inactive)	40 µM (inactive)
CCOC(=O)C1(C#N)C2(C#N)C(N)=NC(ON=C(C)C)(ON=C(C)C)C12C#N (stereo not drawn)	> 100 µM (inactive)	> 100 µM (inactive)	> 100 µM (inactive)	> 100 µM	> 100 µM (inactive)	–	–	> 100 µM (inactive)	> 100 µM (inactive)	> 100 µM (inactive)	> 100 µM (inactive)	62.4 µM (inactive)	> 100 µM (inactive)	> 100 µM (inactive)	> 100 µM (inactive)	> 100 µM (inactive)	> 100 µM (inactive)	> 100 µM (inactive)	–	> 100 µM (inactive)
O=C1NC(=O)c2ccc([N+](=O)[O-])c3cccc1c23	15.9 µM (inactive)	2.01 µM (inactive)	19.5 µM (inactive)	5.31 µM	13.9 µM (inactive)	–	40.1 µM (inactive)	24.4 µM (inactive)	23.5 µM (inactive)	20 µM (inactive)	14.3 µM (inactive)	17.1 µM (inactive)	16 µM (inactive)	16.3 µM (inactive)	12.6 µM (inactive)	17.4 µM (inactive)	14 µM (inactive)	13 µM (inactive)	17.9 µM (inactive)	14.9 µM (inactive)
CC(=O)OC1[C@H](n2ccnc2)C[C@H]2[C@@H]3CC=C4CC(N5CCCC5)CC[C@]4(C)[C@H]3CC[C@]12C (stereo partly drawn)	43.7 µM (inactive)	24.1 µM (inactive)	> 100 µM (inactive)	21.3 µM	27.5 µM (inactive)	54.6 µM (inactive)	> 100 µM (inactive)	34.8 µM (inactive)	43.5 µM (inactive)	–	40.1 µM (inactive)	66.2 µM (inactive)	5.35 µM (inactive)	49.5 µM (inactive)	62.5 µM (inactive)	51.9 µM (inactive)	22.5 µM (inactive)	54.1 µM (inactive)	14.1 µM (inactive)	23.7 µM (inactive)
N#CC1=C(N)OC2=C(CSc3ccccc32)C1c1ccc(Br)cc1 (stereo not drawn)	6.97 µM (inactive)	–	17.7 µM (inactive)	4.7 µM	6.65 µM (inactive)	5.57 µM (inactive)	7.62 µM (inactive)	11.1 µM (inactive)	4.49 µM (inactive)	14.1 µM (inactive)	11.5 µM (inactive)	11.7 µM (inactive)	4.59 µM (inactive)	11.5 µM (inactive)	2.75 µM (inactive)	6.19 µM (inactive)	7.83 µM (inactive)	5.22 µM (inactive)	3.52 µM (inactive)	2.94 µM (inactive)
COc1cc2c(cc1OC)C1=CCC(c3ccccc3)[N+]1(C)CC2 (stereo not drawn)	> 100 µM (inactive)	–	> 100 µM (inactive)	> 100 µM	> 100 µM (inactive)	> 100 µM (inactive)	> 100 µM (inactive)	> 100 µM (inactive)	> 100 µM (inactive)	–	> 100 µM (inactive)	> 100 µM (inactive)	> 100 µM (inactive)	> 100 µM (inactive)	> 100 µM (inactive)	–	> 100 µM (inactive)	> 100 µM (inactive)	> 100 µM (inactive)	> 100 µM (inactive)
CCOC(=O)N/N=C(\CC)NO	> 100 µM (inactive)	> 100 µM (inactive)	> 100 µM (inactive)	> 100 µM	> 100 µM (inactive)	> 100 µM (inactive)	–	> 100 µM (inactive)	> 100 µM (inactive)	> 100 µM (inactive)	> 100 µM (inactive)	> 100 µM (inactive)	> 100 µM (inactive)	> 100 µM (inactive)	> 100 µM (inactive)	> 100 µM (inactive)	> 100 µM (inactive)	> 100 µM (inactive)	> 100 µM (inactive)	> 100 µM (inactive)
CC(C)NC(=O)OCCN=c1c2ccccc2ccc2ccccc12	47.5 µM (inactive)	–	24.4 µM (inactive)	38.7 µM	31.4 µM (inactive)	34.4 µM (inactive)	62.5 µM (inactive)	63.7 µM (inactive)	35.9 µM (inactive)	41.9 µM (inactive)	30.4 µM (inactive)	32.1 µM (inactive)	39.2 µM (inactive)	23.5 µM (inactive)	57.1 µM (inactive)	34.8 µM (inactive)	59.4 µM (inactive)	64.1 µM (inactive)	53.2 µM (inactive)	27.7 µM (inactive)
CCOC(=O)c1c2ccccc2n2c(=O)n(C)nnc12	> 100 µM (inactive)	–	> 100 µM (inactive)	> 100 µM	> 100 µM (inactive)	> 27.9 µM (inactive)	46.3 µM (inactive)	58.9 µM (inactive)	> 100 µM (inactive)	12.4 µM (inactive)	> 100 µM (inactive)	> 100 µM (inactive)	–	> 100 µM (inactive)	> 100 µM (inactive)	> 100 µM (inactive)	89.3 µM (inactive)	> 100 µM (inactive)	> 56.2 µM (inactive)	> 100 µM (inactive)
O=c1[nH]c(=O)n(C2CC(O)C(CO)O2)cc1/N=N/NCc1ccccc1 (stereo not drawn)	> 100 µM (inactive)	> 100 µM (inactive)	> 100 µM (inactive)	> 100 µM	> 100 µM (inactive)	> 100 µM (inactive)	> 100 µM (inactive)	> 100 µM (inactive)	> 100 µM (inactive)	> 100 µM (inactive)	> 100 µM (inactive)	> 100 µM (inactive)	> 100 µM (inactive)	> 100 µM (inactive)	> 100 µM (inactive)	> 100 µM (inactive)	> 100 µM (inactive)	–	–	> 10 µM (inactive)
Nn1c(SCC(=O)NCc2ccccc2)nc2ccccc2c1=O	53.3 µM (inactive)	41.7 µM (inactive)	67 µM (inactive)	67.8 µM	41.6 µM (inactive)	32.3 µM (inactive)	> 100 µM (inactive)	38.2 µM (inactive)	84.1 µM (inactive)	–	79.1 µM (inactive)	57.8 µM (inactive)	45.4 µM (inactive)	43.9 µM (inactive)	40.6 µM (inactive)	> 100 µM (inactive)	55.6 µM (inactive)	57 µM (inactive)	> 100 µM (inactive)	48.5 µM (inactive)
O=C1Nc2cccc3cc(NCC(O)CCl)cc1c23 (stereo not drawn)	59 µM (inactive)	59.2 µM (inactive)	53.6 µM (inactive)	48.9 µM	49.9 µM (inactive)	51.4 µM (inactive)	25.4 µM (inactive)	38.4 µM (inactive)	35.2 µM (inactive)	49.9 µM (inactive)	> 100 µM (inactive)	> 100 µM (inactive)	58.7 µM (inactive)	31.3 µM (inactive)	48.9 µM (inactive)	41.8 µM (inactive)	55 µM (inactive)	40.5 µM (inactive)	–	77.4 µM (inactive)
COc1cc(/C=C2\C[C@H]3[C@@H]4CCc5cc(OCCN6CCCC6)ccc5[C@H]4CC[C@]3(C)C2=O)cc(OC)c1OC	1.57 µM (inactive)	–	2.3 µM (inactive)	1.68 µM	2.52 µM (inactive)	–	–	–	1.75 µM (inactive)	1.77 µM (inactive)	1.97 µM (inactive)	1.79 µM (inactive)	–	1.54 µM (inactive)	1.63 µM (inactive)	1.72 µM (inactive)	1.85 µM (inactive)	1.91 µM (inactive)	1.61 µM (inactive)	1.48 µM (inactive)
O=C(O)CN1C=C(C(=O)c2cc3ccccc3n2S(=O)(=O)c2ccccc2)CCC1	37.2 µM (inactive)	–	> 100 µM (inactive)	49.2 µM	83 µM (inactive)	51.9 µM (inactive)	27.5 µM (inactive)	> 100 µM (inactive)	> 100 µM (inactive)	> 100 µM (inactive)	46.8 µM (inactive)	> 100 µM (inactive)	50 µM (inactive)	30.4 µM (inactive)	64.6 µM (inactive)	–	50.7 µM (inactive)	69.2 µM (inactive)	39.7 µM (inactive)	20.9 µM (inactive)
